In patent US7858635B2 (priority 2005, dated 2010):

What was measured:
M4 muscarinic receptor = target: T1, M4 muscarinic receptor (Homo sapiens, UniProt P08173); experiment: Functional mobilization of intracellular calcium (FLIPR, Fluo-3), M4-CHO cells; format: cell-based; conditions: compound nos. 1-454; for Emax: 100% efficacy is the maximum response obtained with the Carbachol control, read-out: M4 Efficacy; for M4 Activity: M4-CHO cells, calcium mobilization
T1 construct: expressed in transfected cells; host or cells: CHO cells (M4-CHO, under puromycin, zeocin and blasticidin selection)
T1 sequence (P08173 1-479): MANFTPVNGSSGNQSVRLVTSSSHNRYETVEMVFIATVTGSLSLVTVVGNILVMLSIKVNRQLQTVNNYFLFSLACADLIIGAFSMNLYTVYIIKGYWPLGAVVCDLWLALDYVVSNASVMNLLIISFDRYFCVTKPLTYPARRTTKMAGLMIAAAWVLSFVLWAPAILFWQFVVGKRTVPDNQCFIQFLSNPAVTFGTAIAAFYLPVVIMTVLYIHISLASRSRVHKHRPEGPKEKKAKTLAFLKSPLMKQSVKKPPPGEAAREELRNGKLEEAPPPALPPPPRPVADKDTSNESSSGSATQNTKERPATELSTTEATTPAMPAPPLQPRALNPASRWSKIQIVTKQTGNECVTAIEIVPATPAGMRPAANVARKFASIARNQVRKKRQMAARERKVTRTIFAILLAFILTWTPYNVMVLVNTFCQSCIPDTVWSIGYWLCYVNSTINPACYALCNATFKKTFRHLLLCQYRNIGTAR
In short: (§1)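 CHO lines stably carrying the muscarinic subtype, dye-loaded with Fluo-3 at 37° C for 60-90 min, receive test compound in 0.5% DMSO. Agonist effects are read directly; antagonist effects against carbachol at EC80 after 15 min pre-incubation.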

M1 muscarinic receptor = target: T2, M1 muscarinic receptor (Homo sapiens, UniProt P11229); experiment: Functional mobilization of intracellular calcium (FLIPR, Fluo-3), M1-CHO cells; format: cell-based; conditions: compound nos. 1-454; for Emax: 100% efficacy is the maximum response obtained with the Carbachol control, read-out: M1 Efficacy; for M1 Activity: M1-CHO cells, calcium mobilization
T2 construct: expressed in transfected cells; host or cells: CHO cells (M1-CHO, under zeocin and G418 selection)
T2 sequence (P11229 1-460): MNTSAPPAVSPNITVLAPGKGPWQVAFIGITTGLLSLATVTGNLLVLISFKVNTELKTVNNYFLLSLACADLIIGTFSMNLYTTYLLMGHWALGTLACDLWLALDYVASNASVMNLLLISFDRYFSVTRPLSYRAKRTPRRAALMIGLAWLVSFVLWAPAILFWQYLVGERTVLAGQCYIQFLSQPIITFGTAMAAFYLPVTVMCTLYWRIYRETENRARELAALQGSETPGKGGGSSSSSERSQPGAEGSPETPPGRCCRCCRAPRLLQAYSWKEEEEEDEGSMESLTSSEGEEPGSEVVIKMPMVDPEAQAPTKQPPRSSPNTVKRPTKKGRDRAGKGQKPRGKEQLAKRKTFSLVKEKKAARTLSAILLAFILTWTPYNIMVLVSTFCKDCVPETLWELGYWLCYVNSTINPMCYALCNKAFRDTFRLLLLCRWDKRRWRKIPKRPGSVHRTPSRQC
In short: as §1

SMILES	Emax (M4 muscarinic receptor)	M4 Activity (M4 muscarinic receptor)	Emax (M1 muscarinic receptor)	M1 Activity (M1 muscarinic receptor)
CC(=O)N1CC2(CCN(C3CCCC3)CC2)c2cc(F)ccc21 [compound 343]	< 55%	+++ (activity was measured to be less than or equal to 0.1 μM)	65 to 85%	+++ (activity was measured to be less than or equal to 0.7 μM)
CCOC(=O)N1C2CCC1CC(N1CCC3(CC1)CN(C(=O)O[C@@H]1CCOC1)c1ccc(F)cc13)C2 (some centres unmarked) [compound 344]	< 55%	++ (activity was measured to be between 0.1 μM and 4.0 μM)	65 to 85%	+++ (activity was measured to be less than or equal to 0.7 μM)
CC(C)OC(=O)N1C2CCC1CC(N1CCC3(CC1)CN(C(=O)C1CC1)c1ccc(F)cc13)C2 (centres unmarked) [compound 345]	< 55%	++ (activity was measured to be between 0.1 μM and 4.0 μM)	< 65%	+++ (activity was measured to be less than or equal to 0.7 μM)
CC#CCOC(=O)N1CC2(CCN(C3CCN(C(=O)OCC)CC3)CC2)c2cc(F)ccc21 [compound 346]	< 55%	+ (activity was measured to be greater than or equal to 4.0 μM)	< 65%	+++ (activity was measured to be less than or equal to 0.7 μM)
CCOC(=O)N(C)[C@H]1CC2(CCN(C[C@H]3C[C@H]4CC[C@H]3C4)CC2)c2ccccc21 [compound 347]	> 70%	++ (activity was measured to be between 0.1 μM and 4.0 μM)	65 to 85%	+++ (activity was measured to be less than or equal to 0.7 μM)
Clc1ccc2c(c1)C1(CCN(C3CCC4CCC3C4)CC1)CN2 (centres unmarked) [compound 348]	> 70%	++ (activity was measured to be between 0.1 μM and 4.0 μM)	> 85%	+++ (activity was measured to be less than or equal to 0.7 μM)
CCCS(=O)(=O)N1CC2(CCN(C3CC4CCC(C3)N4C(=O)OCC)CC2)c2cc(F)ccc21 (centres unmarked) [compound 349]	> 70%	++ (activity was measured to be between 0.1 μM and 4.0 μM)	> 85%	++ (activity was measured to be between 0.7 μM and 3.0 μM)
Cc1ccc2c(c1)C1(CCN(C3CC4CCC3C4)CC1)CN2 (centres unmarked) [compound 350]	> 70%	+++ (activity was measured to be less than or equal to 0.1 μM)	> 85%	+++ (activity was measured to be less than or equal to 0.7 μM)
CCOC(=O)N1C2CCC1CC(N1CCC3(CC1)CNc1ccc(Cl)cc13)C2 (centres unmarked) [compound 351]	> 70%	++ (activity was measured to be between 0.1 μM and 4.0 μM)	65 to 85%	+++ (activity was measured to be less than or equal to 0.7 μM)
CCOC(=O)N1CCC(N2CCC3(CC2)CNc2ccccc23)CC1 [compound 352]	> 70%	+ (activity was measured to be greater than or equal to 4.0 μM)	> 85%	+++ (activity was measured to be less than or equal to 0.7 μM)
CC#CCOC(=O)N1CCC(N2CCC3(CC2)CN(C(=O)N(C)C)c2ccc(F)cc23)CC1 [compound 353]	55 to 70%	+ (activity was measured to be greater than or equal to 4.0 μM)	> 85%	+++ (activity was measured to be less than or equal to 0.7 μM)
Cc1ccc2c(c1)C1(CCN(C3CC4CCC3C4)CC1)CN2S(=O)(=O)c1ccccc1 (centres unmarked) [compound 354]	55 to 70%	+ (activity was measured to be greater than or equal to 4.0 μM)	65 to 85%	+ (activity was measured to be greater than or equal to 3.0 μM)
O=C(O[C@H]1CCOC1)N1C2CCC1CC(N1CCC3(CCc4ccccc43)CC1)C2 (some centres unmarked) [compound 355]	55 to 70%	++ (activity was measured to be between 0.1 μM and 4.0 μM)	65 to 85%	++ (activity was measured to be between 0.7 μM and 3.0 μM)
CN([C@H]1CC2(CCN(C[C@H]3C[C@H]4CC[C@H]3C4)CC2)c2ccccc21)S(C)(=O)=O [compound 357]	< 55%	+ (activity was measured to be greater than or equal to 4.0 μM)	< 65%	++ (activity was measured to be between 0.7 μM and 3.0 μM)
CC(=O)N[C@H]1CC2(CCN(C3CCC[C@@H](C)C3)CC2)c2ccccc21 (some centres unmarked) [compound 358]	55 to 70%	++ (activity was measured to be between 0.1 μM and 4.0 μM)	65 to 85%	+++ (activity was measured to be less than or equal to 0.7 μM)
CCOC(=O)N1C2CCC1CC(N1CCC3(CC1)C[C@H](NC(C)=O)c1ccccc13)C2 (some centres unmarked) [compound 359]	< 55%	++ (activity was measured to be between 0.1 μM and 4.0 μM)	< 65%	++ (activity was measured to be between 0.7 μM and 3.0 μM)
CCCOC(=O)N1C2CCC1CC(N1CCC3(CC1)CN(C(=O)N(C)C)c1ccc(F)cc13)C2 (centres unmarked) [compound 360]	< 55%	+ (activity was measured to be greater than or equal to 4.0 μM)	65 to 85%	++ (activity was measured to be between 0.7 μM and 3.0 μM)
CC(C)OC(=O)N1C2CCC1CC(N1CCC3(CC1)CN(C(=O)O[C@@H]1CCOC1)c1ccc(F)cc13)C2 (some centres unmarked) [compound 361]	< 55%	+ (activity was measured to be greater than or equal to 4.0 μM)	< 65%	++ (activity was measured to be between 0.7 μM and 3.0 μM)
CCOC(=O)N1C2CCC1CC(N1CCC3(CC1)CN(C(=O)N(C)C)c1ccc(F)cc13)C2 (centres unmarked) [compound 362]	< 55%	+ (activity was measured to be greater than or equal to 4.0 μM)	65 to 85%	++ (activity was measured to be between 0.7 μM and 3.0 μM)
O=C(OCC1CCCO1)N1C2CCC1CC(N1CCC3(CC1)COc1ccc(F)cc13)C2 (centres unmarked) [compound 363]	< 55%	+ (activity was measured to be greater than or equal to 4.0 μM)	< 65%	++ (activity was measured to be between 0.7 μM and 3.0 μM)
C#CCOC(=O)N1CCC(CN2CCC3(CC2)C[C@H](NC(C)=O)c2ccccc23)CC1 [compound 364]	< 55%	+ (activity was measured to be greater than or equal to 4.0 μM)	> 85%	+++ (activity was measured to be less than or equal to 0.7 μM)
CCOC(=O)N1C2CCC1CC(N1CCC3(CCc4ccccc43)CC1)C2 (centres unmarked) [compound 365]	< 55%	+ (activity was measured to be greater than or equal to 4.0 μM)	65 to 85%	+++ (activity was measured to be less than or equal to 0.7 μM)
CC(=O)N1CC2(CCN(CC3CC4CCC3CC4)CC2)c2cc(F)ccc21 (centres unmarked) [compound 366]	< 55%	+ (activity was measured to be greater than or equal to 4.0 μM)	< 65%	++ (activity was measured to be between 0.7 μM and 3.0 μM)
